According to patent US8940739B2, “Compound of a reverse-turn mimetic and a production method and use therefor” (JW Pharmaceutical Corporation, priority 2010, dated 2015):

Columns and labels:
[1] = MLM, hepatic metabolic stability; assay type: in vitro ADME; details: mouse hepatic microsome, amount at 30 minutes compared with 0 minutes
Procedure: For the sake of retaining efficacy of novel drugs and preventing side-effects, hepatic metabolic stability is regarded as very important. Hepatic metabolic stability is typically determined using microsome or S9. In the present test, a microsome having CYP450 as a main component, which plays a great role in metabolism, was used to evaluate the metabolic stability.
This assay was performed in a 200 l volume in a 13 ml glass tube using mouse hepatic microsome whose activity was measured.
The compounds of Examples 1 to 5 were dissolved in DMSO (dimethyl sulfoxide) to prepare a 25 mM stock solution, which was then diluted with 50% acetonitrile and used in the test. A potassium phosphate buffer (pH 7.4, final concentration 0.1M), MgCl2 (final concentration 0.1M), a diluted inventive compound stock solution (final concentration 1 mM), and a mouse microsome (final concentration 5 mg/ml) were added to the glass tube. The reaction was initiated by the addition of a cofactor NADPH (final concentration 12.5 mM) after pre-incubation at 37 for 3 minutes. The reaction was carried out at 37 for 10 minutes and 30 minutes, and then terminated with 1000 μl of acetonitrile, and the remaining inventive compound was extracted. The centrifugation was conducted at 3000 rpm for 10 minutes, after which the supernatant was dried and dissolved again in 150 μl of 50% acetonitrile and quantitatively analyzed by HPLC. 0 minutes and 30 minutes after reaction, the amounts of the compounds of the present invention were compared thus evaluating the extent of metabolic stability.

[2] = target: cDNA-expressed human hepatic CYP3A4 (Homo sapiens (Human), UniProt P08684); assay: Measurement of CYP (IC50 of P450 CYP3A4), BFC substrate; assay type: in vitro ADME; details: 20 minutes
How it was run: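 cDNA-expressed human CYP3A4 supersomes in 0.1M potassium phosphate pH 7.4 with 8.3 mM MgCl2, 1.67 mM EDTA and 0.25 mM NADPH; compounds in acetonitrile (<1% final). Reaction started with 30 µM BFC, 20 min at 37. 7-Hydroxy-4-trifluoromethyl-coumarin read by fluorescence (ex 409/em 530 nm).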

[3] = tested on: MV-4-11 (human, Acute Myeloid Leukemia cell line) cells; assay: Cell growth inhibition assay, GI50 of MV-4-11; assay type: cell-based; details: Homo sapiens, MV4-11, 72 h, MV-4-11 cells
How it was run: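 MV-4-11 AML cells (5×10^4/well, IMDM with 10% FBS) treated in duplicate with serially diluted compounds for 72 hours at 37 °C. Viability read as absorbance at 490 nm after CellTiter 96 Aqueous One (MTS) addition; GI50 calculated from the concentration-response.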

cDNA-expressed human hepatic CYP3A4, sequence (P08684 whole entry): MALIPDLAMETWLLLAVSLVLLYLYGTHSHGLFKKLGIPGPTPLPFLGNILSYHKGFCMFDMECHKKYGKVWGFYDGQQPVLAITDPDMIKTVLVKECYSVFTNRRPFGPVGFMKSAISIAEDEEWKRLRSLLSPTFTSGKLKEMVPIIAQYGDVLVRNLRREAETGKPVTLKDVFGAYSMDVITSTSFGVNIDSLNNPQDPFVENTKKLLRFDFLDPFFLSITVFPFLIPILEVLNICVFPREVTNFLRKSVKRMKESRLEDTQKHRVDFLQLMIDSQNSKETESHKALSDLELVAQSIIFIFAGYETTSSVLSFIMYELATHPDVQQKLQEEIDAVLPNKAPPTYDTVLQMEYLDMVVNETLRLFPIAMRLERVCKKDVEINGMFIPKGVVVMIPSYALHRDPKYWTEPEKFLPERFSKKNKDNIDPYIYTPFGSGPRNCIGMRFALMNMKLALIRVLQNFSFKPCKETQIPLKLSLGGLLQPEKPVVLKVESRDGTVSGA

Structure (SMILES) | MLM (%) [1] [%] | IC50 [2] [µM] | GI50 [3] [nM]
C=CCN1CC(=O)N2[C@@H](Cc3ccc(O)cc3)C(=O)N(Cc3cccc4c(C(=O)N5CCN(CCCN(C)C)CC5)cn(C)c34)C[C@@H]2N1C(=O)NCc1ccccc1 [Compound E-13] | 89.1 | > 25 | –
C=CCN1CC(=O)N2C(Cc3ccc(O)cc3)C(=O)N(Cc3cccc4c(C(=O)Nc5ccc(N6CCN(c7ccc(C(F)(F)F)cc7)CC6)nc5)cn(C)c34)CC2N1C(=O)NCc1ccccc1 (stereo not drawn) [Compound G-58] | 85.1 | 23.7 | –
C=CCN1CC(=O)N2[C@@H](Cc3ccc(O)cc3)C(=O)N(Cc3cccc4c(C(=O)NCCCC(=O)O)cn(C)c34)C[C@@H]2N1C(=O)NCc1ccccc1 [Compound F-24] | 84.2 | > 25 | –
C=CCN1CC(=O)N2[C@@H](Cc3ccc(O)cc3)C(=O)N(Cc3cccc4c(C(=O)N5CCN(CC6CCNCC6)CC5)cn(C)c34)C[C@@H]2N1C(=O)NCc1ccccc1 [Compound E-23] | 73.8 | 8.17 | –
C=CCN1CC(=O)N2[C@@H](Cc3ccc(O)cc3)C(=O)N(Cc3cccc4c(-c5ccc(NC(=S)NC(=O)c6ccccc6)nc5)cn(C)c34)C[C@@H]2N1C(=O)NCc1ccccc1 [Compound H-5] | 74 | > 25 | –
C=CCN1CC(=O)N2[C@@H](Cc3ccc(O)cc3)C(=O)N(Cc3cccc4c(C(=O)N5CCC(NC(=O)c6ccc(N(C)C)cc6)CC5)cn(C)c34)C[C@@H]2N1C(=O)NCc1ccccc1 [Compound E-59] | 58.5 | > 25 | –
C=CCN1CC(=O)N2[C@@H](Cc3ccc(O)cc3)C(=O)N(Cc3cccc4c(-c5ccc(C(=O)N(C)C)o5)cn(C)c34)C[C@@H]2N1C(=O)NCc1ccccc1 [Compound D-102] | – | 3.42 | 1.6
C=CCN1CC(=O)N2[C@@H](Cc3ccc(O)cc3)C(=O)N(Cc3cccc4c(C(=O)N(C)CCCO)cn(C)c34)C[C@@H]2N1C(=O)NCc1ccccc1 [Compound F-5] | – | 3.68 | 16
C=CCN1CC(=O)N2[C@@H](Cc3ccc(O)cc3)C(=O)N(Cc3cccc4c(C(=O)N5CCC(OC)CC5)cn(C)c34)C[C@@H]2N1C(=O)NCc1ccccc1 [Compound E-52] | – | 3.3 | 9.2
C=CCN1CC(=O)N2[C@@H](Cc3ccc(O)cc3)C(=O)N(Cc3cccc4c(C(=O)N(C)CC5(CO)CC5)cn(C)c34)C[C@@H]2N1C(=O)NCc1ccccc1 [Compound F-9] | – | 2.53 | 15.4
C=CCN1CC(=O)N2[C@@H](Cc3ccc(O)cc3)C(=O)N(Cc3cccc4c(C(=O)Nc5ccc(N(C)C)nc5)cn(C)c34)C[C@@H]2N1C(=O)NCc1ccccc1 [Compound G-15] | – | 6.75 | 1.2
C=CCN1CC(=O)N2[C@@H](Cc3ccc(O)cc3)C(=O)N(Cc3cccc4c(-c5ccc(NC(=O)c6ccc(OC)cc6)cc5)cn(C)c34)C[C@@H]2N1C(=O)NCc1ccccc1 [Compound D-49] | – | > 25 | 10
C=CCN1CC(=O)N2[C@@H](Cc3ccc(O)cc3)C(=O)N(Cc3cccc4c(C(=O)N5CCN(CCN6CCOCC6)CC5)cn(C)c34)C[C@@H]2N1C(=O)NCc1ccccc1 [Compound E-25] | – | 6.09 | 20.4
C=CCN1CC(=O)N2[C@@H](Cc3ccc(O)cc3)C(=O)N(Cc3cccc4c(-c5ccc(NC(=O)N6CCOCC6)nc5)cn(C)c34)C[C@@H]2N1C(=O)NCc1ccccc1 [Compound D-88] | – | 10.2 | 1.2
C=CCN1CC(=O)N2[C@@H](Cc3ccc(O)cc3)C(=O)N(Cc3cccc4c(-c5ccc(NC(=O)N6CCN(S(C)(=O)=O)CC6)nc5)cn(C)c34)C[C@@H]2N1C(=O)NCc1ccccc1 [Compound D-97] | – | 6.4 | 2.2
C=CCN1CC(=O)N2C(Cc3ccc(O)cc3)C(=O)N(Cc3cccc4c(C(=O)Nc5ccc(N6CCC(N7CCCC7)CC6)nc5)cn(C)c34)CC2N1C(=O)NCc1ccccc1 (stereo not drawn) [Compound G-51] | – | 3.97 | 1.3
C=CCN1CC(=O)N2[C@@H](Cc3ccc(O)cc3)C(=O)N(Cc3cccc4c(C(=O)NCCCCOC)cn(C)c34)C[C@@H]2N1C(=O)NCc1ccccc1 [Compound F-10] | – | 2.01 | 15.1
C=CCN1CC(=O)N2[C@@H](Cc3ccc(O)cc3)C(=O)N(Cc3cccc4c(-c5ccc(NC(=O)NC6CCCC6)cc5)cn(C)c34)C[C@@H]2N1C(=O)NCc1ccccc1 [Compound D-79] | – | 7.8 | 10.8

Structure (SMILES) | MLM (%) [1] [%] | IC50 [2] [µM] | GI50 [3] [nM]
C=CCN1CC(=O)N2[C@@H](Cc3ccc(O)cc3)C(=O)N(Cc3cccc4c(-c5ccc(C(=O)Nc6ccccc6)cc5)cn(C)c34)C[C@@H]2N1C(=O)NCc1ccccc1 [Compound D-17] | – | 7.63 | 6.9
C=CCN1CC(=O)N2[C@@H](Cc3ccc(O)cc3)C(=O)N(Cc3cccc4c(C(=O)N5CCN6CCN(CC(C)C)CC6C5)cn(C)c34)C[C@@H]2N1C(=O)NCc1ccccc1 (stereo partly drawn) [Compound E-45] | – | 3.98 | 1.8
C=CCN1CC(=O)N2[C@@H](Cc3ccc(O)cc3)C(=O)N(Cc3cccc4c(-c5ccc(NC(=O)c6ccc(NC)cc6)cc5)cn(C)c34)C[C@@H]2N1C(=O)NCc1ccccc1 [Compound D-56] | – | > 25 | 12.5
C=CCN1CC(=O)N2C(Cc3ccc(O)cc3)C(=O)N(Cc3cccc4c(C(=O)Nc5ccc(NCCN6CCOCC6)nc5)cn(C)c34)CC2N1C(=O)NCc1ccccc1 (stereo not drawn) [Compound G-28] | – | 2.32 | 5.6
C=CCN1CC(=O)N2[C@@H](Cc3ccc(O)cc3)C(=O)N(Cc3cccc4c(-c5ccc(C(=O)NNC(C)(C)C)cc5)cn(C)c34)C[C@@H]2N1C(=O)NCc1ccccc1 [Compound D-34] | – | 3.41 | 1.2
C=CCN1CC(=O)N2[C@@H](Cc3ccc(O)cc3)C(=O)N(Cc3cccc4c(C(=O)Nc5cnc(N6CCN(C(C)C)CC6)nc5)cn(C)c34)C[C@@H]2N1C(=O)NCc1ccccc1 [Compound G-47] | – | 3.67 | 2.3
C=CCN1CC(=O)N2[C@@H](Cc3ccc(O)cc3)C(=O)N(Cc3cccc4c(-c5ccc(NC(=O)Nc6ccc(OC)cc6)cc5)cn(C)c34)C[C@@H]2N1C(=O)NCc1ccccc1 [Compound D-76] | – | 9.48 | 15.8
C=CCN1CC(=O)N2[C@@H](Cc3ccc(O)cc3)C(=O)N(Cc3cccc4c(C(=O)N5CC(N6CCC(OC)CC6)C5)cn(C)c34)C[C@@H]2N1C(=O)NCc1ccccc1 [Compound E-73] | – | 11.8 | 19.3
C=CCN1CC(=O)N2[C@@H](Cc3ccc(O)cc3)C(=O)N(Cc3cccc4c(C(=O)Nc5ccc(OCCN(C)C)nc5)cn(C)c34)C[C@@H]2N1C(=O)NCc1ccccc1 [Compound G-12] | – | 10.1 | 9.9
C=CCN1CC(=O)N2[C@@H](Cc3ccc(O)cc3)C(=O)N(Cc3cccc4c(C(=O)Nc5ccc(N6CCCN(C)CC6)nc5)cn(C)c34)C[C@@H]2N1C(=O)NCc1ccccc1 [Compound G-67] | – | 11.2 | 1.3
C=CCN1CC(=O)N2C(Cc3ccc(O)cc3)C(=O)N(Cc3cccc4c(C(=O)Nc5ccc(N6CCC(O)CC6)nc5)cn(C)c34)CC2N1C(=O)NCc1ccccc1 (stereo not drawn) [Compound G-37] | – | 6.95 | 1.3
C=CCN1CC(=O)N2[C@@H](Cc3ccc(O)cc3)C(=O)N(Cc3cccc4c(-c5ccc(C(=O)Nc6cccc(OC(C)C)c6)cc5)cn(C)c34)C[C@@H]2N1C(=O)NCc1ccccc1 [Compound D-26] | – | 13.7 | 19
C=CCN1CC(=O)N2[C@@H](Cc3ccc(O)cc3)C(=O)N(Cc3cccc4c(-c5ccc(C(=O)Nc6cccc(O)c6)cc5)cn(C)c34)C[C@@H]2N1C(=O)NCc1ccccc1 [Compound D-16] | – | 8.07 | 15.6
C=CCN1CC(=O)N2C(CN(Cc3cccc4c(C(=O)Nc5ccc6c(c5)OCCO6)cn(C)c34)C(=O)[C@@H]2Cc2ccc(O)cc2)N1C(=O)NCc1ccccc1 (stereo partly drawn) [Compound G-70] | – | 2.63 | 1.7
C=CCN1CC(=O)N2[C@@H](Cc3ccc(O)cc3)C(=O)N(Cc3cccc4c(C(=O)Nc5ccc(N(C)CCO)nc5)cn(C)c34)C[C@@H]2N1C(=O)NCc1ccccc1 [Compound G-18] | – | 3.45 | 1.5
C=CCN1CC(=O)N2[C@@H](Cc3ccc(O)cc3)C(=O)N(Cc3cccc4c(-c5ccc(C(=O)N6CCSCC6)cc5)cn(C)c34)C[C@@H]2N1C(=O)NCc1ccccc1 [Compound D-5] | – | 1.76 | 2.2
C=CCN1CC(=O)N2[C@@H](Cc3ccc(O)cc3)C(=O)N(Cc3cccc4c(-c5ccc(C(=O)N6CCN(S(C)(=O)=O)CC6)nc5)cn(C)c34)C[C@@H]2N1C(=O)NCc1ccccc1 [Compound D-90] | – | 6.96 | 4.6
C=CCN1CC(=O)N2[C@@H](Cc3ccc(O)cc3)C(=O)N(Cc3cccc4c(C(=O)N5CCC(N6CCOCC6)CC5)cn(C)c34)C[C@@H]2N1C(=O)NCc1ccccc1 [Compound E-65] | – | 2.11 | 13
